Source: patent US20230035403A1, “Method For Determining Responsiveness To Prostate Cancer Treatment” (Janssen Biotech, Inc., priority 2020, published 2023)

Key:
[1] = system: CD8+ T cells in PBMCs from patients with metastatic castrate-resistant prostate cancer; assay: Patient PBMC restimulation assay (in vitro immunogenicity of neoantigens); type: cell-based, human; details: for Immunogenic: Patient PBMC restimulation, TNFα and IFNγ production by CD8+ T cells; for Maximum fold change over negative control: TNFα+IFNγ+CD8+ T cells, highest fold change across the PBMC donors evaluated, 9 mer peptide; for Maximum frequency of TNFα^+IFNγ^+CD8^+ T cells (Percent): greatest frequency among all tested PBMC donors, negative control 0.011-0.8 depending on patient
Protocol: PBMCs from human patients with metastatic castrate-resistant prostate cancer were thawed using media (RPMI 1640 supplemented with Glutamax, 10% HI FBS, and 1× Sodium Pyruvate). Cells were counted and plated in a 96 well round bottom microplate at a concentration of 250,000 viable cells per well. Lyophilized peptides were solubilized in 100% DMSO and diluted in media to 10 μg/mL. Neoantigen peptides were added in equal volume to PBMCs for a final concentration of 5 μg/mL. CEF Peptide Pool “Plus” (Cellular Technologies, Ltd.) was utilized as a positive control and DMSO at the same final concentration as the experimental peptides was utilized as a negative control. Human IL-15 (Peprotech) was added to all wells at final concentration of 10 ng/mL.
Plates were incubated at 37° C. (5% CO2) for a total of 13 days. Media was refreshed every 2 days with IL-15 (10 ng/mL final concentration) and IL-2 (R&D systems, 10 IU/mL final concentration). On day 12, PBMCs were re-stimulated with identical experimental peptides or controls, at same concentration as peptide stimulation on Day 1. After 1-hour incubation, protein Inhibitor Cocktail (eBioscience) was added to every well and plate was incubated overnight.
(§1) On day 13, cells were stained for intracellular flow cytometry analysis. The cells were washed with PBS and stained with Live/Dead Fixable Aqua Dead Cell stain (Thermo-Fisher). Following the live/dead stain, cells were blocked using Biotin-Free Fc Receptor Blocker (Accurate Chemical & Scientific Corp). Extracellular cellular flow panel (1 μL/antibody per well in 50 μL) consisted of CD3 PerCP-Cy5.5 (Biolegend), CD4 BV421 (Biolegend), and CD8 APC-Cy7 (Biolegend). After extracellular staining, cells were fixed using Foxp3/Transcription Factor Staining Buffer Set (eBioscience) and stained for intracellular proteins (1:50 dilution) using TNFα FITC (R&D Systems) and IFNγ BV785 (Biolegend). Cells were washed and resuspended in stain buffer and analyzed using a BD Celesta flow cytometer.
Flow cytometry cell staining analysis was completed using FlowJo v10. Cells were gated on live, singlet, CD3+ cells. The CD8+ T cells were analyzed for TNFα/IFNγ expression and the frequency of double positive TNFα/IFNγ CD8+ T cells was recorded. Responses were assessed to be positive when the frequency of double positive TNFα/IFNγ CD8+ T cells due to stimulation with an experimental peptide was increased greater than or equal to 2-fold over the DMSO only negative control for that patient. Peptides were analyzed in 1 to 7 patient samples.
The 9 mer fragments shown in Table 13 were assessed for their ability to activate T cells using the Patient PBMC restimulation assay described in Example 1 using TNFα and IFNγ production by CD8^+ T cells as a readout. Self-antigens shown in Table 15 were also used in the assays. […] PBMCs from ten patients were evaluated.

[2] = system: autologous CD3+ Pan-T cells (CD8+ and CD4+ T cells) with peptide-pulsed CD1c+ Dendritic Cells; assay: Exogenous autologous normal donor restimulation assay (in vitro immunogenicity); type: cell-based, human; set-up: key to Max. Frequency of CD8+ TNFαINFγ DP / Max. Frequency of CD4+ TNFαINFγ DP: % of T cells double positive for TNFα/IFNγ; details: pool of overlapping 15-mer peptides, maximum across normal donors; for Maximum Fold Change Over Background CD4+ cells / Maximum Fold Change Over Background CD8+ cells / Maximum Frequency of TNFα/IFNγ Double Positive CD4+ T cells / Maximum Frequency of TNFα/IFNγ Double Positive CD8+ T cells: Table 25; for Maximum Fold Change Over Background CD4+ cells: TNFα+IFNγ+ CD4+ T cells; for Maximum Fold Change Over Background CD4+ cells / Maximum Fold Change Over Background CD8+ cells: over negative control; for Maximum Fold Change Over Background CD8+ cells: TNFα+IFNγ+ CD8+ T cells; for Max. Fold Change over background CD4+ TNFαINFγ double positive DP / Max. Fold Change over background CD8+ TNFαINFγ double positive DP / Max. Frequency of CD4+ TNFαINFγ DP / Max. Frequency of CD8+ TNFαINFγ DP: Table 28, additional neoantigens
Protocol: CD1c+ Dendritic Cells (DC) isolated from human normal PBMCs were thawed using media (IMDM (Gibco) supplemented with glutamine, HEPES, 5% human serum (Sigma), and 1× Pen-Strep). DC cells were resuspended in media supplemented with IL-4 (Peprotech, 80 ng/mL) and GM-CSF (Gibco, 80 ng/mL), plated in 6 well microplates, and rested overnight at 37° C. (5% CO2). The following day, DC cells were counted and plated in a 96 well round bottom microplate at a concentration of 30,000 viable cells per well. Lyophilized peptides (15-mer overlapping peptides) were solubilized in 100% DMSO and pooled by neoantigen to between 5 mg/mL and 20 mg/mL. Neoantigen peptides pools were added to DCs for a final concentration of 2.5 μg/mL to 10 μg/mL and rested for 2 hours at 37° C. (5% CO2). CEF Peptide Pool “Plus” (Cellular Technologies, Ltd.) was utilized as a positive control and DMSO at the same final concentration as the experimental peptides was utilized as a negative control. After 2 hours, DC cells were irradiated with 50 gray of ionizing radiation. Autologous CD3+ Pan-T cells isolated from human normal PBMCs were thawed using media. Following irradiation, autologous Pan-T cells were added to the irradiated DCs at 300,000 viable cells per well. Human IL-15 (Peprotech) was added to all wells at final concentration of 10 ng/mL.
Plates were incubated at 37° C. (5% CO2) for a total of 12 days. Media was refreshed every 2-3 days with IL-15 (10 ng/mL final concentration) and IL-2 (R&D systems, 10 IU/mL final concentration). On day 11 cells were re-stimulated with identical experimental peptide pools or controls, at same concentration as peptide stimulation on Day 1. Protein Inhibitor Cocktail (eBioscience) was added to every well and plate was incubated overnight at 37° C. (5% CO2).
as §1, with “12,” for “13,”
Flow cytometry cell staining analysis was completed using FlowJo v10. Cells were gated on live, singlet, CD3+ cells. The CD8+ and CD4+ T cells were analyzed for TNFα/IFNγ expression and the frequency of double positive TNFα/IFNγ CD8+ and the frequency of double positive TNFα/IFNγ CD4+ T cells were recorded. Responses were assessed to be positive when the frequency of double positive TNFα/IFNγ CD8+ or TNFα/IFNγ CD4+ T cells due to stimulation with an experimental peptide pool was increased greater than or equal to 3-fold over the DMSO only negative control for that donor and at least 0.01%.
(§2) Overlapping 15-mer peptides were designed to span each neoantigen incorporated into NeoGAd20 and NeoMVA to assess their ability to activate T cells using the exogenous autologous normal donor restimulation assay described in Example 1 as pools using TNFα and IFNγ production by CD8^+ and CD4^+ T cells as a readout.
as §2, with “Immunogenicity of various additional identified neoantigens was assessed. Overlapping” for “Overlapping”, “similarly to what was done in Example 11” for “incorporated into NeoGAd20 and NeoMVA”

Row | Substance | Immunogenic [1] | Maximum fold change over negative control [1] | Maximum frequency of TNFα^+IFNγ^+CD8^+ T cells (Percent) [1] | Maximum Fold Change Over Background CD4+ cells [2] | Maximum Fold Change Over Background CD8+ cells [2] | Maximum Frequency of TNFα/IFNγ Double Positive CD4+ T cells [2] | Maximum Frequency of TNFα/IFNγ Double Positive CD8+ T cells [2] | Max. Fold Change over background CD4+ TNFαINFγ double positive DP [2] | Max. Fold Change over background CD8+ TNFαINFγ double positive DP [2] | Max. Frequency of CD4+ TNFαINFγ DP [2] | Max. Frequency of CD8+ TNFαINFγ DP [2]
1 | GVPGDSTRRAVRRMNTF [Neoantigen P16] | Yes | 65.82 | 4.620% | 2.44 | 2.44 | 0.039 | 0.039 | – | – | – | –
2 | HYKLIQQPISLFSITDRLHKTFSQLPSVHLCSITFQWGHPPIFCSTNDICVTANFCISVTFLKPCFLLHEASASQ [MS1] | – | – | – | 50.19 | 5.56 | 0.39 | 0.1 | – | – | – | –
3 | NSKMALNSLNSIDDAQLTRIAPPRSHCCFWEVNAP [Neoantigen P35] | Yes | 2.67 | 0.064% | 3.47 | 14.44 | 0.03 | 0.26 | – | – | – | –
4 | P19 (IPVLTRWPL) [Neoantigen P19] | – | – | – | – | – | – | – | 6.67 | 4.76 | 0.16 | 0.15
5 | P27 (FPVGAEGTF) [Neoantigen P27] | – | – | – | – | – | – | – | 45.38 | 7.87 | 0.05 | 0.59
6 | P27 (FPVGAEGTF) [Peptide P27] | Yes | 3.43 | 0.430% | – | – | – | – | – | – | – | –
7 | P37 (GVLRRLLCR) [Neoantigen P37] | – | – | – | – | – | – | – | 22.78 | 2.05 | 0.09 | 0.13
8 | P37 (GVLRRLLCR) [Peptide P37] | Yes | – | 1.160% | – | – | – | – | – | – | – | –
9 | P50 (IQYSCMGLM) [Peptide P50] | Yes | 5.14 | 0.190% | – | – | – | – | – | – | – | –
10 | P59 (NMVENGCYL) [Peptide P59] | Yes | 10.75 | 3.010% | – | – | – | – | – | – | – | –
11 | P97 (LMAQRLLLR) [Neoantigen P97] | – | – | – | – | – | – | – | 3.14 | 7.47 | 0.12 | 1.11
12 | TMPAILKLQKNCLLSL [MS8] | – | – | – | 15.60 | 4.44 | 0.40 | 0.14 | – | – | – | –
13 | YAYKDFLWCFPFSLVFLQEIQICCHVSCLCCICCSTRICLGCLLELFLSRALRALHVLWNGFQLHCQ [MS6] | – | – | – | 111.97 | 4.17 | 0.87 | 0.08 | – | – | – | –
